Like-named read-outs stand apart in the source and are kept apart here.
Legend:
5-LOX = target: T1, 5-LOX (Homo sapiens, UniProt P09917); test: fluorescence-based enzyme assay of human 5-LOX (Table 3); type: biochemical
T1 sequence (P09917 1-674): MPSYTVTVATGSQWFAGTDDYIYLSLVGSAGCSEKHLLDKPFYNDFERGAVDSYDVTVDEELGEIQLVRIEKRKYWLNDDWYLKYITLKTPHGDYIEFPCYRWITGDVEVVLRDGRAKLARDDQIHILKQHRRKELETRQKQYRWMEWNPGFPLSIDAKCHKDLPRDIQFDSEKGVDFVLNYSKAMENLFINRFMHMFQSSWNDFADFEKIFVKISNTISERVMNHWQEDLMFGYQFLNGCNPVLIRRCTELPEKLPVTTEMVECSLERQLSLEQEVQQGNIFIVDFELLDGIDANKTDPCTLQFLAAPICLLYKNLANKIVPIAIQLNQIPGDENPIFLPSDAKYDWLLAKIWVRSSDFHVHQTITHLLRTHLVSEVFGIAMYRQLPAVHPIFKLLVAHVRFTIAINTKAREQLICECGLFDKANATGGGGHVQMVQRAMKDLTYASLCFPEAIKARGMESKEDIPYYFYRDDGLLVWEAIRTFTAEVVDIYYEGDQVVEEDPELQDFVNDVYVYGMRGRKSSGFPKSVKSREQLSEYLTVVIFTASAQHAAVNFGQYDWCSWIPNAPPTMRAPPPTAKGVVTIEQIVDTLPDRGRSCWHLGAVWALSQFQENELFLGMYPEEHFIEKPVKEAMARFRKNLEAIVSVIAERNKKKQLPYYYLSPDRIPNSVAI
Description: (§1) Table 3 provides results for exemplary subject bisindole compounds on 5-LOX, 12-LOX and 15-LOX.

15-LOX-2 = target: T2, 15-LOX-2 (Homo sapiens, UniProt O15296); test: in vitro 15-LOX-2 inhibition (Table 3); type: biochemical
T2 sequence (O15296 1-676): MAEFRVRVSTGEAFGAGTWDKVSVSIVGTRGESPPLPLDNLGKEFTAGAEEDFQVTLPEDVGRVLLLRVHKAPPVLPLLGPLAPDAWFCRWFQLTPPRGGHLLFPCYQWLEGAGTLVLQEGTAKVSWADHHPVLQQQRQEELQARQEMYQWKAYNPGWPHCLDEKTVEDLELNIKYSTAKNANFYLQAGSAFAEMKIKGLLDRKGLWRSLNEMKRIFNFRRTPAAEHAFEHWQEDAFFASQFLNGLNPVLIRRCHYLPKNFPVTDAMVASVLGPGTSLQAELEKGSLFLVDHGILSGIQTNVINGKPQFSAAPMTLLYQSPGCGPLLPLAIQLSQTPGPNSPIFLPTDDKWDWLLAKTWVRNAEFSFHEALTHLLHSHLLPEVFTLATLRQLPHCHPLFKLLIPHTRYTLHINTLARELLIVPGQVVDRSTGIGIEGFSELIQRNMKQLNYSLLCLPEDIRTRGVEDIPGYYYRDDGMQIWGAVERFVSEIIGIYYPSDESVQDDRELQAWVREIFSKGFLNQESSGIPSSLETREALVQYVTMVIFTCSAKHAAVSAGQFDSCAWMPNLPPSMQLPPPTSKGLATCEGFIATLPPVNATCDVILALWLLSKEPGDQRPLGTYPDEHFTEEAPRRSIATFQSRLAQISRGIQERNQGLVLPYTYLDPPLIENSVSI
Description: as §1

human 12-LOX = target: T3, human 12-LOX (Homo sapiens, UniProt P18054); test: colorimetric platelet 12-LOX activity assay (ferric oxidation of xylenol orange, human blood platelets); type: cell-based
T3 construct: ferric oxidation of xylenol orange from arachidonic acid in human blood platelets; endogenous in cells; host or cells: human blood platelets
T3 sequence (P18054 1-663): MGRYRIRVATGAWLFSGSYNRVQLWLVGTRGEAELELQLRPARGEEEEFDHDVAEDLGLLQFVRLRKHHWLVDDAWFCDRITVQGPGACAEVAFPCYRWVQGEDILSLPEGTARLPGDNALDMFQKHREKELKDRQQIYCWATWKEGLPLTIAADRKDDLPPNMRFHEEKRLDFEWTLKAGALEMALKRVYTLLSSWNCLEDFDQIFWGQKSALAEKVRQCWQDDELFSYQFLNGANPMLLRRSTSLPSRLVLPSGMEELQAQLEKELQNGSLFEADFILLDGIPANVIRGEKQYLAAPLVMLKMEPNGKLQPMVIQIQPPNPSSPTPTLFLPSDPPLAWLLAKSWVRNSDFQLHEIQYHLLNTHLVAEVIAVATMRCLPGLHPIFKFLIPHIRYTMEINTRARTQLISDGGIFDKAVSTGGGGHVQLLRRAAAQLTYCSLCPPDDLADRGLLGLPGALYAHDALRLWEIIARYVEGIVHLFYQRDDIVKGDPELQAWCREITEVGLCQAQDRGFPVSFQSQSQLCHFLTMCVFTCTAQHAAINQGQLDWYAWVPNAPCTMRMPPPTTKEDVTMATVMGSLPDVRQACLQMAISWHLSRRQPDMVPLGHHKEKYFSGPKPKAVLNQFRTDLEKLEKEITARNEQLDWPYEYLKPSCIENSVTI
Description: as §1

[1] = tested on: amyloid-beta (Abeta) formation; test: secreted Abeta40/Abeta42 ELISA in N2A-APPswe cells; type: cell-based; conditions: Mus musculus, 24 hours treatment
Protocol: A neuronal cell-based screening assay capable of sensitive and selective detection of secreted Aβ40 and Aβ42 was established. Mouse neuro-2A neuroblastoma (N2A) cells were co-transfected with pSV2neo selection plasmid and a human APP gene carrying the K670N/M671L Swedish mutations (APPswe) that are known to cause early-onset AD. The transfected cells were selected in G418-containing medium, and single colonies were analyzed for the expression of APPswe. The resulting stable cell line, N2A-APPswe, provides a platform for screening inhibitors that alter Aβ formation from the human APPswe gene. Levels of secreted Aβ40 and Aβ42 in the medium can be quantified by ELISA kits. Table 4 provides results for exemplary subject bisindole compounds on amyloid-beta (Abeta) formation at 5 μM after 24 hours treatment in N2A-APPswe cells.

[2] = read-out: Abeta 40 formation (% of control)
[3] = read-out: Abeta 42 formation (% of control)

Row | inhibition at 3 µM (5-LOX; 3 μM) [%] | inhibition at 3 µM (15-LOX-2) [%] | inhibition at 3 µM (human 12-LOX; 3 μM) [%] | Structure (SMILES) | activity at 5 µM [1, 2] [%] | activity at 5 µM [1, 3] [%] | other results
1 | 92 | 55 | 88 | Fc1ccc2[nH]c3c(OC[C@@H]4CCCN4)c4[nH]c5ccc(F)cc5c4cc3c2c1 | – | – | –
2 | 91 | 45 | 80 | Fc1ccc2[nH]c3c(OC[C@H]4CCCN4)c4[nH]c5ccc(F)cc5c4c(Cl)c3c2c1 | – | – | –
3 | – | – | – | Cl.Fc1ccc2[nH]c3c(OCC4CCCN4)c4[nH]c5ccc(F)cc5c4cc3c2c1 (centres unmarked) | – | – | 5-LOX % Inhibition at 3 μM (5-LOX; 3 μM): 95%; 15-LOX-2 % Inhibition at 3 μM (15-LOX-2; 3 µM): 63%; 12-LOX % Inhibition at 3 μM (human 12-LOX; 3 μM): 77%
4 | 52 | 16 | 76 | Cc1c2[nH]c3ccccc3c2cc2c1[nH]c1ccccc12 | – | – | –
5 | – | – | – | CCN(CC)CCOC(=O)c1ccc2[nH]c3c(OC)c4[nH]c5ccc(C(=O)OCCN(CC)CC)cc5c4cc3c2c1 | – | – | inhibition at 10 µM (5-LOX; 10 μM (footnote *)): 80%; inhibition at 10 µM (human 12-LOX; 10 μM (footnote *)): 12%
6 | – | – | – | Fc1ccc2[nH]c3c(OCC4CCCN4)c4[nH]c5ccc(F)cc5c4c(Cl)c3c2c1 (centres unmarked) | 86 | 62 | –
7 | – | – | – | Fc1ccc2[nH]c3c(OCCN4CC[C@H](F)C4)c4[nH]c5ccc(F)cc5c4cc3c2c1 | 75 | 35 | –
8 | – | – | – | Fc1ccc2[nH]c3c(OCC4CCCO4)c4[nH]c5ccc(F)cc5c4cc3c2c1 (centres unmarked) | 74 | 42 | –
9 | – | – | – | Fc1ccc2[nH]c3c(OCCn4cncn4)c4[nH]c5ccc(F)cc5c4cc3c2c1 | 53 | 30 | –
10 | – | – | – | COc1c2[nH]c3ccc(F)cc3c2c(N2CCOCC2)c2c1[nH]c1ccc(F)cc12 | 77 | 43 | –
11 | – | – | – | Fc1ccc2[nH]c3c(C(F)(F)F)c4[nH]c5ccc(F)cc5c4cc3c2c1 | 81 | 47 | –
12 | – | – | – | Fc1ccc2[nH]c3c(OCCN4CCCCC4)c4[nH]c5ccc(F)cc5c4cc3c2c1 | 82 | 19 | –
13 | – | – | – | Cc1nnn(CCOc2c3[nH]c4ccc(F)cc4c3cc3c2[nH]c2ccc(F)cc23)n1 | 66 | 36 | –
14 | – | – | – | Cc1nnnn1CCOc1c2[nH]c3ccc(F)cc3c2cc2c1[nH]c1ccc(F)cc12 | 66 | 36 | –
15 | – | – | – | F[C@@H]1CN[C@H](COc2c3[nH]c4ccc(Cl)cc4c3cc3c2[nH]c2ccc(Cl)cc23)C1 | 59 | 3 | –
16 | – | – | – | c1ccc2c(c1)[nH]c1c(OCCCN3CCOCC3)c3[nH]c4ccccc4c3cc12 | 95 | 25 | –
17 | – | – | – | N=C(N)NCCCOc1c2[nH]c3ccc(Cl)cc3c2cc2c1[nH]c1ccc(Cl)cc12 | 77 | 8 | –
18 | 90 | 46 | 78 | CN(C)CCOc1c2[nH]c3ccc(F)cc3c2cc2c1[nH]c1ccc(F)cc12 [drawing 7] | – | – | –
19 | 85 | 25 | 89 | Clc1ccc2[nH]c3c(OCCCn4cncn4)c4[nH]c5ccc(Cl)cc5c4cc3c2c1 [drawing 8] | – | – | –

Row | inhibition at 3 µM (5-LOX; 3 μM) [%] | inhibition at 3 µM (15-LOX-2) [%] | inhibition at 3 µM (human 12-LOX; 3 μM) [%] | Structure (SMILES) | activity at 5 µM [1, 2] [%] | activity at 5 µM [1, 3] [%] | other results
20 | 70 | 19 | 77 | Nc1nnn(CCOc2c3[nH]c4ccc(Cl)cc4c3cc3c2[nH]c2ccc(Cl)cc23)n1 [drawing 9] | – | – | –
21 | 85 | 24 | 73 | Nc1nnnn1CCOc1c2[nH]c3ccc(Cl)cc3c2cc2c1[nH]c1ccc(Cl)cc12 [drawing 10] | – | – | –
22 | 95 | 66 | 79 | N=C(N)NCCCOc1c2[nH]c3ccc(F)cc3c2cc2c1[nH]c1ccc(F)cc12 [drawing 11] | – | – | –
23 | 86 | 51 | 80 | Fc1ccc2[nH]c3c(OC4CCNC4)c4[nH]c5ccc(F)cc5c4cc3c2c1 (centres unmarked) [drawing 12] | – | – | –
24 | 79 | 43 | 79 | Clc1ccc2[nH]c3c(OCC4CCCN4)c4[nH]c5ccc(Cl)cc5c4cc3c2c1 (centres unmarked) [drawing 13] | – | – | –
25 | 94 | 61 | 78 | Fc1ccc2[nH]c3c(OCC4CCCN4)c4[nH]c5ccc(F)cc5c4cc3c2c1 (centres unmarked) [drawing 14] | – | – | –
26 | 77 | 17 | 77 | Fc1ccc2[nH]c3c(OCC4CCCN4)c4[nH]c5ccc(F)cc5c4c(C(F)(F)F)c3c2c1 (centres unmarked) [drawing 17] | – | – | –
27 | – | – | – | CN(C)CCOc1c2[nH]c3ccc(F)cc3c2cc2c1[nH]c1ccc(F)cc12 [drawing 24] | 79 | 76 | –
28 | – | – | – | Clc1ccc2[nH]c3c(OCCCn4cncn4)c4[nH]c5ccc(Cl)cc5c4cc3c2c1 [drawing 25] | 66 | 54 | –
29 | – | – | – | Nc1nnn(CCOc2c3[nH]c4ccc(Cl)cc4c3cc3c2[nH]c2ccc(Cl)cc23)n1 [drawing 26] | 86 | 75 | –
30 | – | – | – | Nc1nnnn1CCOc1c2[nH]c3ccc(Cl)cc3c2cc2c1[nH]c1ccc(Cl)cc12 [drawing 27] | 81 | 71 | –
31 | – | – | – | N=C(N)NCCCOc1c2[nH]c3ccc(F)cc3c2cc2c1[nH]c1ccc(F)cc12 [drawing 28] | 82 | 58 | –
32 | – | – | – | Fc1ccc2[nH]c3c(OC4CCNC4)c4[nH]c5ccc(F)cc5c4cc3c2c1 (centres unmarked) [drawing 29] | 71 | 9 | –
33 | – | – | – | Clc1ccc2[nH]c3c(OCC4CCCN4)c4[nH]c5ccc(Cl)cc5c4cc3c2c1 (centres unmarked) [drawing 30] | 69 | 59 | –
34 | – | – | – | Fc1ccc2[nH]c3c(OCC4CCCN4)c4[nH]c5ccc(F)cc5c4c(C(F)(F)F)c3c2c1 (centres unmarked) [drawing 32] | 89 | 69 | –
35 | – | – | – | CN(C)CCOc1c2[nH]c3ccc(F)cc3c2c(Cl)c2c1[nH]c1ccc(F)cc12 [drawing 33] | 68 | 55 | –
36 | – | – | – | Fc1ccc2[nH]c3c(OC[C@@H]4C[C@H](F)CN4)c4[nH]c5ccc(F)cc5c4cc3c2c1 [drawing 34] | 93 | 67 | –
37 | – | – | – | CCOC(=O)c1ccc2[nH]c3c(O[C@H]4CCNC4)c4[nH]c5ccc(C(=O)OCC)cc5c4cc3c2c1 [drawing 35] | 70 | 48 | –
38 | – | – | – | Fc1ccc2[nH]c3c(OCC4CCCN4)c4[nH]c5ccc(F)cc5c4cc3c2c1 (centres unmarked) [drawing 36] | 65 | 52 | –

Reference: US20130345214A1, “Lipoxygenase Inhibitors” (SRI International, Inc., priority 2011, published 2013)
